{"source": "patent US8986731B2", "about": "“Pegylated liposomal formulations of hydrophobic photosensitizers for photodynamic therapy” (Biolitec Pharma Marketing Ltd, priority 2003, dated 2015)", "assay": "Pharmacokinetic properties in HT29 tumour-bearing mice (HPLC of plasma and tissues; tolerability of injection)", "type": "in vivo, athymic NMRI nu/nu mice", "settings": "lateral tail vein injection, 50 μL", "method": "HT 29 human colorectal carcinoma cells are used. Six to eight weeks old adult female athymic NMRI nu/nu mice (Taconic M&B, Denmark) weighting 22-24 g were inoculated subcutaneously in the left hind thigh with 0.1 ml of 8×10^7 HT29 human colorectal carcinoma cells/ml in 5% glucose. Two to three weeks later, as the tumor reached a surface diameter of 7-8 mm, and a thickness of 2-3 mm in height, 50 μL of Temoporfin (0.2 mg/kg) diluted in ethanol or 50 μL pegylated liposomal formulation of mTHPC (0.04 mg/ml) were injected into lateral tail vein. Following the drug injection animals were held under normal animal house lighting conditions (average illumination of 200 Lux, maximum 600 Lux of fluorescent tube light, with no exposure to sunlight or daylight). No photo-reaction was observed during this period. […] The fluorescence wave length was set at 410 nm for excitation and 653 nm for emission. The tissue concentration of mTHPC was calculated from a calibration curve constructed by plotting the peak height values of mTHPC standard solutions versus their concentrations.", "data": [{"smiles": "Oc1cccc(-c2c3nc(c(-c4cccc(O)c4)c4ccc([nH]4)c(-c4cccc(O)c4)c4nc(c(-c5cccc(O)c5)c5ccc2[nH]5)CC4)C=C3)c1", "note": "[Temoporfin]", "values": [{"measurement": "Adverse effects during or immediately after injection", "value": "No adverse effects"}]}]}
